Laboratory results: ChEMBL document CHEMBL3603744, “Structure activity relationship of C-2 ether substituted 1,5-naphthyridine analogs of oxabicyclooctane-linked novel bacterial topoisomerase inhibitors as broad-spectrum antibacterial agents (Part-5)” (Bioorg Med Chem Lett, 2015)
In brackets after ≈: the same amount, converted by molar mass. Activity calls are given as the source filed them. How the calls were made is not given here.

What was measured:
[1] = test system: Streptococcus pneumoniae; test: Antimicrobial activity against Streptococcus pneumoniae IID553 by micro broth dilution or agar based method; assay type: functional
[2] = test system: Enterococcus faecium; test: Antimicrobial activity against vancomycin-resistant Enterococcus faecium VanA by micro broth dilution or agar based method; assay type: functional
[3] = test system: Escherichia coli; test: Antimicrobial activity against Escherichia coli ATCC 25922 by micro broth dilution or agar based method; assay type: functional
[4] = test system: Pseudomonas aeruginosa; test: Antimicrobial activity against Pseudomonas aeruginosa PAO1 by micro broth dilution or agar based method; assay type: functional
[5] = test system: Staphylococcus aureus; test: Antimicrobial activity against Staphylococcus aureus Smith by micro broth dilution or agar based method; assay type: functional
[6] = test system: Staphylococcus aureus; test: Antimicrobial activity against methicillin-resistant Staphylococcus aureus OIT971 by micro broth dilution or agar based method; assay type: functional, organism-based
[7] = test system: Acinetobacter baumannii; test: Antimicrobial activity against Acinetobacter baumannii IID876 by micro broth dilution or agar based method; assay type: functional

Structure (SMILES) | MIC [1] [µg/mL] | MIC [2] [µg/mL] | MIC [3] [µg/mL] | MIC [4] [µg/mL] | MIC [5] [µg/mL] | growth inhibition (GI) [6] | MIC [7] [µg/mL]
COC(=O)[C@H]1C[C@@H]1COc1ccc2ncc(F)c(CCC34CCC(NCc5ccc6c(n5)NC(=O)CO6)(CC3)CO4)c2n1 (relative stereo) | 0.25 (≈ 0.423 µM) | 4 (≈ 6.76 µM) | 16 (≈ 27 µM) | 16 (≈ 27 µM) | 0.031 (≈ 0.0524 µM) | Active | 8 (≈ 13.5 µM)
CC(C)CCOc1ccc2ncc(F)c(CCC34CCC(NCc5ccc6c(n5)NC(=O)CO6)(CC3)CO4)c2n1 | 1 (≈ 1.82 µM) | 8 (≈ 14.6 µM) | 16 (≈ 29.1 µM) | 16 (≈ 29.1 µM) | 0.125 (≈ 0.227 µM) | Active | 16 (≈ 29.1 µM)
CC(C)(O)CCOc1ccc2ncc(F)c(CCC34CCC(NCc5ccc6c(n5)NC(=O)CO6)(CC3)CO4)c2n1 | 4 (≈ 7.07 µM) | 16 (≈ 28.3 µM) | 16 (≈ 28.3 µM) | 16 (≈ 28.3 µM) | 1 (≈ 1.77 µM) | Active | 16 (≈ 28.3 µM)
O=C1COc2ccc(CNC34CCC(CCc5c(F)cnc6ccc(OCC(F)(F)F)nc56)(CC3)OC4)nc2N1 | 1 (≈ 1.78 µM) | 4 (≈ 7.12 µM) | 16 (≈ 28.5 µM) | 16 (≈ 28.5 µM) | 0.063 (≈ 0.112 µM) | Active | 8 (≈ 14.2 µM)
N[C@H]1C(=O)N[C@@H]1COc1ccc2ncc(F)c(CCC34CCC(NCc5ccc6c(n5)NC(=O)CO6)(CC3)CO4)c2n1 | 0.5 (≈ 0.866 µM) | 16 (≈ 27.7 µM) | 16 (≈ 27.7 µM) | 32 (≈ 55.4 µM) | 0.5 (≈ 0.866 µM) | Active | 32 (≈ 55.4 µM)
NCCOc1ccc2ncc(F)c(CCC34CCC(NCc5ccc6c(n5)NC(=O)CO6)(CC3)CO4)c2n1 | 0.5 (≈ 0.957 µM) | 4 (≈ 7.65 µM) | 1 (≈ 1.91 µM) | 4 (≈ 7.65 µM) | 0.25 (≈ 0.478 µM) | Active | 1 (≈ 1.91 µM)
O=C1COc2ccc(CNC34CCC(CCc5c(F)cnc6ccc(OCCC(F)(F)C(=O)O)nc56)(CC3)OC4)nc2N1 | 16 (≈ 26.6 µM) | 16 (≈ 26.6 µM) | 16 (≈ 26.6 µM) | 16 (≈ 26.6 µM) | 16 (≈ 26.6 µM) | Active | 16 (≈ 26.6 µM)
O=C1COc2ccc(CNC34CCC(CCc5c(F)cnc6ccc(OCCCO)nc56)(CC3)OC4)nc2N1 [listing 1 of 2 here] | 0.25 (≈ 0.465 µM) | 1 (≈ 1.86 µM) | 4 (≈ 7.44 µM) | 16 (≈ 29.8 µM) | 0.016 (≈ 0.0298 µM) | – | 2 (≈ 3.72 µM)
O=C(O)CCCCOc1ccc2ncc(F)c(CCC34CCC(NCc5ccc6c(n5)NC(=O)CO6)(CC3)CO4)c2n1 | 0.25 (≈ 0.431 µM) | 2 (≈ 3.45 µM) | 16 (≈ 27.6 µM) | 16 (≈ 27.6 µM) | 0.063 (≈ 0.109 µM) | Active | 16 (≈ 27.6 µM)
O=C1COc2ccc(CNC34CCC([C@@H](O)Cc5c(F)cnc6ccc(OCCCO)nc56)(CC3)OC4)nc2N1 [listing 1 of 2 here] | – | – | – | – | – | Active | –
O=C1COc2ccc(CNC34CCC(CCc5c(F)cnc6ccc(OCC(CO)CO)nc56)(CC3)OC4)nc2N1 | 0.5 (≈ 0.881 µM) | 4 (≈ 7.05 µM) | 16 (≈ 28.2 µM) | 32 (≈ 56.4 µM) | 0.125 (≈ 0.22 µM) | Active | 8 (≈ 14.1 µM)
O=C1COc2ccc(CNC34CCC(CCc5c(F)cnc6ccc(OCCc7cc(=O)c(O)c[nH]7)nc56)(CC3)OC4)nc2N1 | 8 (≈ 13 µM) | 32 (≈ 51.9 µM) | 32 (≈ 51.9 µM) | 32 (≈ 51.9 µM) | 16 (≈ 25.9 µM) | Active | 32 (≈ 51.9 µM)
NCCCCOc1ccc2ncc(F)c(CCC34CCC(NCc5ccc6c(n5)NC(=O)CO6)(CC3)CO4)c2n1 | 1 (≈ 1.82 µM) | 8 (≈ 14.5 µM) | 4 (≈ 7.26 µM) | 16 (≈ 29.1 µM) | 0.5 (≈ 0.908 µM) | Active | 8 (≈ 14.5 µM)
O=C1COc2ccc(CNC34CCC(CCc5c(F)cnc6ccc(OCC7(O)COC7)nc56)(CC3)OC4)nc2N1 | 0.5 (≈ 0.884 µM) | 4 (≈ 7.07 µM) | 16 (≈ 28.3 µM) | 32 (≈ 56.6 µM) | 0.125 (≈ 0.221 µM) | Active | 4 (≈ 7.07 µM)
NCC1(COc2ccc3ncc(F)c(CCC45CCC(NCc6ccc7c(n6)NC(=O)CO7)(CC4)CO5)c3n2)CC1 | 0.5 (≈ 0.889 µM) | 16 (≈ 28.4 µM) | 8 (≈ 14.2 µM) | 32 (≈ 56.9 µM) | 1 (≈ 1.78 µM) | Active | 4 (≈ 7.11 µM)
CCOc1ccc2ncc(F)c(CCC34CCC(NCc5ccc6c(n5)NC(=O)CO6)(CC3)CO4)c2n1 | 0.5 (≈ 0.985 µM) | 2 (≈ 3.94 µM) | 4 (≈ 7.88 µM) | 8 (≈ 15.8 µM) | 0.031 (≈ 0.0611 µM) | Active | 2 (≈ 3.94 µM)

Structure (SMILES) | MIC [1] [µg/mL] | MIC [2] [µg/mL] | MIC [3] [µg/mL] | MIC [4] [µg/mL] | MIC [5] [µg/mL] | growth inhibition (GI) [6] | MIC [7] [µg/mL]
O=C(O)COc1ccc2ncc(F)c(CCC34CCC(NCc5ccc6c(n5)NC(=O)CO6)(CC3)CO4)c2n1 | 16 (≈ 29.8 µM) | 16 (≈ 29.8 µM) | 16 (≈ 29.8 µM) | 16 (≈ 29.8 µM) | 16 (≈ 29.8 µM) | Active | 16 (≈ 29.8 µM)
O=C1COc2ccc(CNC34CCC(CCc5c(F)cnc6ccc(OC[C@H]7C[C@H]7C(=O)O)nc56)(CC3)OC4)nc2N1 (relative stereo) | 0.125 (≈ 0.216 µM) | 2 (≈ 3.46 µM) | 32 (≈ 55.4 µM) | 32 (≈ 55.4 µM) | 0.125 (≈ 0.216 µM) | Active | 32 (≈ 55.4 µM)
O=C1COc2ccc(CNC34CCC(CCc5c(F)cnc6ccc(OCCO)nc56)(CC3)OC4)nc2N1 [listing 1 of 2 here] | 0.25 (≈ 0.477 µM) | 1 (≈ 1.91 µM) | 4 (≈ 7.64 µM) | 8 (≈ 15.3 µM) | 0.031 (≈ 0.0592 µM) | – | 1 (≈ 1.91 µM)
COCCOc1ccc2ncc(F)c(CCC34CCC(NCc5ccc6c(n5)NC(=O)CO6)(CC3)CO4)c2n1 [listing 1 of 2 here] | 1 (≈ 1.86 µM) | 4 (≈ 7.44 µM) | 8 (≈ 14.9 µM) | 16 (≈ 29.8 µM) | 0.063 (≈ 0.117 µM) | – | 4 (≈ 7.44 µM)
O=C1COc2ccc(CNC34CCC(CCc5c(F)cnc6ccc(OCCO)nc56)(CC3)OC4)nc2N1 [listing 2 of 2 here] | – | – | – | – | – | Active | –
O=C1COc2ccc(CNC34CCC(CCc5c(F)cnc6ccc(OCCCCCO)nc56)(CC3)OC4)nc2N1 [listing 1 of 2 here] | 1 (≈ 1.77 µM) | 4 (≈ 7.07 µM) | 8 (≈ 14.1 µM) | 8 (≈ 14.1 µM) | 0.063 (≈ 0.111 µM) | – | 8 (≈ 14.1 µM)
COCCOc1ccc2ncc(F)c(CCC34CCC(NCc5ccc6c(n5)NC(=O)CO6)(CC3)CO4)c2n1 [listing 2 of 2 here] | – | – | – | – | – | Active | –
O=C1COc2ccc(CNC34CCC(CCc5c(F)cnc6ccc(OCCCO)nc56)(CC3)OC4)nc2N1 [listing 2 of 2 here] | – | – | – | – | – | Active | –
NCCCOc1ccc2ncc(F)c(CCC34CCC(NCc5ccc6c(n5)NC(=O)CO6)(CC3)CO4)c2n1 [listing 1 of 2 here] | 0.5 (≈ 0.932 µM) | 4 (≈ 7.45 µM) | 2 (≈ 3.73 µM) | 8 (≈ 14.9 µM) | 0.25 (≈ 0.466 µM) | – | 2 (≈ 3.73 µM)
O=C1COc2ccc(CNC34CCC([C@@H](O)Cc5c(F)cnc6ccc(OCCCO)nc56)(CC3)OC4)nc2N1 [listing 2 of 2 here] | 0.5 (≈ 0.903 µM) | 4 (≈ 7.23 µM) | 16 (≈ 28.9 µM) | 16 (≈ 28.9 µM) | 0.125 (≈ 0.226 µM) | – | 4 (≈ 7.23 µM)
COC(=O)[C@@H]1C[C@@H]1COc1ccc2ncc(F)c(CCC34CCC(NCc5ccc6c(n5)NC(=O)CO6)(CC3)CO4)c2n1 (relative stereo) | – | – | – | – | – | Active | –
COc1ccc2ncc(F)c(C[C@H](O)C34CCC(NCc5ccc6c(n5)NC(=O)CO6)(CC3)CO4)c2n1 [listing 1 of 2 here] | 0.05 (≈ 0.0981 µM) | 0.5 (≈ 0.981 µM) | 2 (≈ 3.93 µM) | 8 (≈ 15.7 µM) | 0.02 (≈ 0.0393 µM) | – | 0.5 (≈ 0.981 µM)
NCCCOc1ccc2ncc(F)c(CCC34CCC(NCc5ccc6c(n5)NC(=O)CO6)(CC3)CO4)c2n1 [listing 2 of 2 here] | – | – | – | – | – | Active | –
O=C1COc2ccc(CNC34CCC(CCc5c(F)cnc6ccc(OCCCCCO)nc56)(CC3)OC4)nc2N1 [listing 2 of 2 here] | – | – | – | – | – | Active | –
COc1ccc2ncc(F)c(C[C@H](O)C34CCC(NCc5ccc6c(n5)NC(=O)CO6)(CC3)CO4)c2n1 [listing 2 of 2 here] | – | – | – | – | – | Active | –
